Values of other authors as cited in patent US10894960B2, “Compositions and methods for nucleic acid transfer” (Children's Hospital Medical Center, priority 2016, dated 2021).

biological target: PARP-1 (Homo sapiens, UniProt P09874); details: Target PARP-1, gene symbol PARP1

SMILES | Effect
O=[As]O[As]=O (stereo not shown) [As(,2)O(,3)] | Inhibition

biological target: NR3A (Homo sapiens, UniProt Q8TCU5); details: Target NR3A, gene symbol GRIN3A
Sequence (Q8TCU5 24-1115, species assumed, other chains not shown): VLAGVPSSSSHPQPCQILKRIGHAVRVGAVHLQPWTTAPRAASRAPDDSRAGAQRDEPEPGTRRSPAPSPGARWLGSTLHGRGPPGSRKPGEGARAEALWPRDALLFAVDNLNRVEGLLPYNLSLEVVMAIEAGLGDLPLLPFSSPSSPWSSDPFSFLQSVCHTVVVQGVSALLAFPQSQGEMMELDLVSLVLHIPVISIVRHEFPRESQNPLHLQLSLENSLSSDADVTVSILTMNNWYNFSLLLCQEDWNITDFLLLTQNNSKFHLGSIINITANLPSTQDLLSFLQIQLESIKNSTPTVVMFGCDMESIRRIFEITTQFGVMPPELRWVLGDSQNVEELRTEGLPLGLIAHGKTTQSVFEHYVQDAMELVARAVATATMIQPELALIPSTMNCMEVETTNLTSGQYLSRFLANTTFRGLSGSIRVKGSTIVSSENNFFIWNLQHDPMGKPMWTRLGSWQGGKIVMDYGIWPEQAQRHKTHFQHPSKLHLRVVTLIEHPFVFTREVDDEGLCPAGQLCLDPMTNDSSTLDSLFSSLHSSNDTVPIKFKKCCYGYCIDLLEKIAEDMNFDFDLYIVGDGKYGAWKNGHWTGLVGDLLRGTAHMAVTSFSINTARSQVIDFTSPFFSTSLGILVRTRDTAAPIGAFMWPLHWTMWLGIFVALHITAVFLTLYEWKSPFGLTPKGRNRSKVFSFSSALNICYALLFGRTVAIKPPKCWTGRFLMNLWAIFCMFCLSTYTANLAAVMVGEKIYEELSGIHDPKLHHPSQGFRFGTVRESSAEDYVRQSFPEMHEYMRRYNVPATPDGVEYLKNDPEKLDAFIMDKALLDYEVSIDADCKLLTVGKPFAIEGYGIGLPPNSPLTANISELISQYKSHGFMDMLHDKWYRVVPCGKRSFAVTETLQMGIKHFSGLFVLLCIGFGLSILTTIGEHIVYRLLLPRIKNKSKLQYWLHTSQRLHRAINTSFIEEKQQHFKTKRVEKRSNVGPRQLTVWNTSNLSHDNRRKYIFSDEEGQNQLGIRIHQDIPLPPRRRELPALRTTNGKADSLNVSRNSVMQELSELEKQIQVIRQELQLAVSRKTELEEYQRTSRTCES

SMILES | Effect
CNC1(c2ccccc2Cl)CCCCC1=O (stereo not shown) [Ketamine] | Inhibition
CC12CC3CC(C)(C1)CC(N)(C3)C2 [Memantine] | Inhibition

biological target: TOP2 beta (Homo sapiens, UniProt Q02880); details: Target TOP2 beta, gene symbol TOP2B
Sequence (Q02880 whole entry): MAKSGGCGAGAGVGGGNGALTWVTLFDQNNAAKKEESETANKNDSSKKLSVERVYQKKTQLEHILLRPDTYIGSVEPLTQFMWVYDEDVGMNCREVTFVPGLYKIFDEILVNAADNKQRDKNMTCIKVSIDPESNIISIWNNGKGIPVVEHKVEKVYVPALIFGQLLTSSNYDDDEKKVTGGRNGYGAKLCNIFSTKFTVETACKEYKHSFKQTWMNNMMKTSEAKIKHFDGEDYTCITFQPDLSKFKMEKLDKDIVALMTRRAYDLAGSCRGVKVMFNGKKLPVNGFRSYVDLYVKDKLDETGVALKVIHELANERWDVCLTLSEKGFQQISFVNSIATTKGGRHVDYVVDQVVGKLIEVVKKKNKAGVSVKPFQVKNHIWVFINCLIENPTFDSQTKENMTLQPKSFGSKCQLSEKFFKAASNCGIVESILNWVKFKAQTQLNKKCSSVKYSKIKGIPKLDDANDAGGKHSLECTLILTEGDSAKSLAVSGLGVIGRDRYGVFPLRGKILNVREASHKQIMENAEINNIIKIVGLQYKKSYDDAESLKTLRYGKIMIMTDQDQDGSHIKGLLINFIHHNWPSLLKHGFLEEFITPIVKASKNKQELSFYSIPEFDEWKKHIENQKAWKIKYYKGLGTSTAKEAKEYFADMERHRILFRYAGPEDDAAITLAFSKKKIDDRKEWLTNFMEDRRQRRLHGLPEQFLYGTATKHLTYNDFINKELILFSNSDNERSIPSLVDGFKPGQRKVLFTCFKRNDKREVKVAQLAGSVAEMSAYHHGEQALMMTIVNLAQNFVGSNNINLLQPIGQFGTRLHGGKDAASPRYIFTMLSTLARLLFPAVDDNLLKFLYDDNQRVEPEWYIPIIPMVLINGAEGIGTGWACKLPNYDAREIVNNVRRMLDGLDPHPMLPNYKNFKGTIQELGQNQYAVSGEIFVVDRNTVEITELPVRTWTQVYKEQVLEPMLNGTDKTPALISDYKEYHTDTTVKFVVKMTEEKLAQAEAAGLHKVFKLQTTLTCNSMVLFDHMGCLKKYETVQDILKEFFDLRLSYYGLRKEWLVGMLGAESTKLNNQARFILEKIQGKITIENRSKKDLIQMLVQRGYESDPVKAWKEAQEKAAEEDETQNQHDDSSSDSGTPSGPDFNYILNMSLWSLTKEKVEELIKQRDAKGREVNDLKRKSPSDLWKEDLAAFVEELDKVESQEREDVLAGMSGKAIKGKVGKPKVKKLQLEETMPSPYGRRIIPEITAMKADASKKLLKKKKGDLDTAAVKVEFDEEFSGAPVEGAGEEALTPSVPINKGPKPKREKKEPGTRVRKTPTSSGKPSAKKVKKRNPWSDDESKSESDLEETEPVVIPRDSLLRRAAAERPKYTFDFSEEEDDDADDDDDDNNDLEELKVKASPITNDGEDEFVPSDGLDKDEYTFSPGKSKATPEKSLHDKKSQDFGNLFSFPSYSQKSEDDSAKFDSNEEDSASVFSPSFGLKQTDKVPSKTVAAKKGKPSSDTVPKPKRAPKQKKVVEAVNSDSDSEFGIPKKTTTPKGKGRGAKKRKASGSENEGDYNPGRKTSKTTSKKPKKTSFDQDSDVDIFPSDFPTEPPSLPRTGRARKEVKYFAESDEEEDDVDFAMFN

SMILES | Effect
C[C@@H]1O[C@@H](O[C@H]2C[C@](O)(C(=O)CO)Cc3c(O)c4c(c(O)c32)C(=O)c2ccccc2C4=O)[C@H](I)[C@H](O)[C@H]1O [Annamycin] | Inhibition
CO[C@@H]1[C@@H](N)[C@@H](O[C@H]2[C@H](Oc3cccc4c(O)c5c(=O)oc6ccc(C)c7c(=O)oc(c34)c5c67)O[C@H](C)[C@H](O)[C@]2(C)O)O[C@H](C)[C@@H]1O [Elsamitrucin] | Inhibition
O=C(Nc1ccc2ncccc2c1)C(=O)c1cn(Cc2ccc(Cl)cc2)c2ccccc12 [Entasobulin] | Inhibition
COc1cc([C@@H]2c3cc4c(cc3[C@@H](O[C@@H]3O[C@@H]5CO[C@@H](C)O[C@H]5[C@H](O)[C@H]3O)[C@H]3COC(=O)[C@H]23)OCO4)cc(OC)c1O [Etoposide] | Inhibition
Cc1cnc(NCCCN(C)C)c2c1[nH]c1ccc3cc(O)ccc3c12 [Intoplicine] | Inhibition
COc1ccc2c(c[n+](C)c3c4cc5c(cc4ccc23)OCO5)c1O [NK109] | Inhibition
COc1cc([C@@H]2c3cc4c(cc3[C@@H](CCN(C)CCN(C)C)[C@H]3COC(=O)[C@H]23)OCO4)cc(OC)c1O [TOP53] | Inhibition
COc1cc([C@@H]2c3cc4c(cc3[C@@H](O[C@@H]3O[C@@H]5CO[C@@H](c6cccs6)O[C@H]5[C@H](O)[C@H]3O)[C@H]3COC(=O)[C@H]23)OCO4)cc(OC)c1O [Teniposide] | Inhibition

biological target: SUR1 (Homo sapiens, UniProt Q09428); details: Target SUR1, gene symbol ABCC8
Sequence (Q09428 whole entry, species assumed): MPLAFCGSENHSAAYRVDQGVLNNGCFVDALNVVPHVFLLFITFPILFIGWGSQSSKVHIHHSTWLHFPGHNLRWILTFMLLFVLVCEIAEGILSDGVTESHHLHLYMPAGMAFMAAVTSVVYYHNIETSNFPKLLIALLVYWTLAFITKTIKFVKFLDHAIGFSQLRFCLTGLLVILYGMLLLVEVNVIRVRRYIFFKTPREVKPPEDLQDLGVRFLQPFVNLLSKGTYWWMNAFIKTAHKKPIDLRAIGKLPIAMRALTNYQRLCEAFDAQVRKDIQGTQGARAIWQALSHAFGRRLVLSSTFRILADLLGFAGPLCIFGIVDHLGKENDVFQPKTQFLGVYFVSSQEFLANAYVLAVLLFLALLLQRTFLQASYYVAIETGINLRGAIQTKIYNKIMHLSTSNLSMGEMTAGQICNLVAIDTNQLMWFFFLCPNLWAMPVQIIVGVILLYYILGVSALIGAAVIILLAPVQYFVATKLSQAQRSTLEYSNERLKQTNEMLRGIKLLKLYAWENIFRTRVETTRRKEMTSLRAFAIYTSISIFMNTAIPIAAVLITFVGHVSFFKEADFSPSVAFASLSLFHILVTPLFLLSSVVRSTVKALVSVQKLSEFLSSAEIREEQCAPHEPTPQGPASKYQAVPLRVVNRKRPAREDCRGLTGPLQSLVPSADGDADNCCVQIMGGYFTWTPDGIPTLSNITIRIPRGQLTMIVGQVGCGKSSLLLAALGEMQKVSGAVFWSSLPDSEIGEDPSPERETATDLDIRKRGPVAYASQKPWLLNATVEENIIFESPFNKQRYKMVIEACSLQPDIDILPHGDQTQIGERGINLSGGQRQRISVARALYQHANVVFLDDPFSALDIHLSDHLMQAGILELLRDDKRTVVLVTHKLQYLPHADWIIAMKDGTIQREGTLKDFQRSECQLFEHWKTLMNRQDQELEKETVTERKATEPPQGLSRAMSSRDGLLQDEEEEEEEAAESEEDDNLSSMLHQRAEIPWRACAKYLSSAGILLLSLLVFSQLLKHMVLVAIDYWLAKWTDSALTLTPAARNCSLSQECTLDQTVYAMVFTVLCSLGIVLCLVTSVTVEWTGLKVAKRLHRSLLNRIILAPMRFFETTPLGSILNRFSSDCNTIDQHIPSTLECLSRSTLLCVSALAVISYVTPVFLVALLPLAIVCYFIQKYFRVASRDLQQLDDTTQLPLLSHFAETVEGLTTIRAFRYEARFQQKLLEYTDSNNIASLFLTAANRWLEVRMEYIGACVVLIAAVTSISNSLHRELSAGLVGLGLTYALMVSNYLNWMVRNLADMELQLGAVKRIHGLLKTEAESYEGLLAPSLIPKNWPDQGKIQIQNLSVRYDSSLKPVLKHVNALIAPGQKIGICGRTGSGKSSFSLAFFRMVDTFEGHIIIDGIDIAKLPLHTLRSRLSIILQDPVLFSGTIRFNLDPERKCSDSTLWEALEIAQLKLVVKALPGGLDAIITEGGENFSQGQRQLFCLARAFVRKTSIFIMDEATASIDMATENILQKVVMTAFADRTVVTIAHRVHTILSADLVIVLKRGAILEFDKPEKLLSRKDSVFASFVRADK
Sequence (Q14654 whole entry partner, species assumed): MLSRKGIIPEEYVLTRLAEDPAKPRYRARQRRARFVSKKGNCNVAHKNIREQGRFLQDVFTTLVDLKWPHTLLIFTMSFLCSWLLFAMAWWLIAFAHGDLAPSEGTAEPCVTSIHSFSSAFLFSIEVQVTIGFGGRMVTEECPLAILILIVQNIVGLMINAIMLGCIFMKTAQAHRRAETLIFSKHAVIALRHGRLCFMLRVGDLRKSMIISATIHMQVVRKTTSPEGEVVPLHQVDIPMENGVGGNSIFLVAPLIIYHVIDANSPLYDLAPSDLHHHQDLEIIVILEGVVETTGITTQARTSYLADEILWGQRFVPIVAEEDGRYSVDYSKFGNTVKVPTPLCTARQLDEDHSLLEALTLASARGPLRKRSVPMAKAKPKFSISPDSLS

SMILES | Effect
CCOc1cc(CC(=O)N[C@@H](CC(C)C)c2ccccc2N2CCCCC2)ccc1C(=O)O (racemic) [(R/S)-Repaglinide] | Inhibition
CC(=O)c1ccc(S(=O)(=O)NC(=O)NC2CCCCC2)cc1 [Acetohexamide] | Activation
CC1=NS(=O)(=O)c2cc(Cl)ccc2N1 [Diazoxide] | Activation
CCC1=C(C)CN(C(=O)NCCc2ccc(S(=O)(=O)NC(=O)N[C@H]3CC[C@H](C)CC3)cc2)C1=O [Glimepiride] | Inhibition
C1CCC2(C1)C1CN(CC3CC3)CC2CN(CC2CC2)C1 [Tedisamil] | Inhibition
